In the NIST ThermoML archive (doi:10.1021/je900436f):
Numbers after ± are expanded uncertainties.

Details: 298.15 K, Liquid

**Q.** With CC(C)CO [2-methyl-1-propanol] as the compound, how does the mass density (1.535 kPa) read?
**A.** 797.775 ± 0.6 kg/m3

**Q.** Which mass density (13.52 kPa) does the source give for CCCCCl [1-chlorobutane] here?
**A.** 880.805 ± 0.6 kg/m3

**Q.** For CCCCCC [hexane], which mass density (20.22 kPa) is on record?
**A.** 654.96 ± 1.4 kg/m3

**Q.** For CC(C)(C)O [2-methylpropan-2-ol], which mass density (5.605 kPa) is on record?
**A.** 780.885 ± 0.75 kg/m3
